{
  "source": "patent US20060127400A1",
  "about": "“Activation of regulatory T cells by alpha-melanocyte stimulating hormone” (THE SCHEPENS EYE RESEARCH INSTITUTE, INC., priority 1999, published 2006)",
  "key": {"CD4+ T cells": {"test_system": "CD4+ T cells", "experiment": "flow cytometry of intracellular IFN-γ and IL-4 in TCR-stimulated primed T cells", "format": "cell-based, mouse (BALB/c)", "settings": "α-MSH 30 pg/ml, anti-CD3, 24 h", "description": "Flow Cytometry. For immunostaining and flow cytometry, T cells (2×10^6 cells) were obtained from 24 hour cultures of enriched primed T cells TCR-stimulated in the presence of α-MSH as described above. The cells were centrifuged and washed once in 400 μl of brefeldin/PBS buffer (10 mM PBS, 10 μg/ml brefeldin A). The cells were resuspended in 100 μl of PBS/brefeldin and 100 μl of 4% paraformaldehyde/PBS fixing buffer. The cells were incubate at room temperature for 20 minutes with gentle agitation and washed once with 200 μl of brefeldin/PBS, centrifuged, and resuspended in 50 μl of PBS/saponin (10 mM PBS, 1% BSA, 0.1% Na Azide, 0.5% Saponin) and incubated 10 minutes at room temperature. To the cell suspensions 2 μg of FITC-conjugated anti-cytokine antibody (anti-IL-4 or -IFN-γ) or FITC-isotype control was added. […] The stained cells were analyzed by a Coulter Epics flow cytometer calibrated for two color fluorescence, and presented were the fluorescence of blast (proliferating) cells in two dimensions.\nTo further examine α-MSH suppression of IFN-γ production by T cells, the frequency of IFN-γ producing T cells activated in the presence of α-MSH was assayed by flow cytometry. […] The stained cells were analyzed by two-color flow cytometry gating on the blastogenic, proliferating T cells. […] Percent of analyzed cell population is given for each quadrant in the lower right-hand of each histogram. […]"}, "CD3ε": {"test_system": "CD3ε", "experiment": "tyrosine phosphorylation of CD3ε, immunoprecipitation and anti-phosphotyrosine immunoblot", "format": "cell-based, mouse", "description": "Immunoprecipitation and Immunoblotting. Enriched primed T cells (2×10^6 cells) in a 24 well Corning plate were TCR-stimulated with 2C11 in the presence of α-MSH (30 pg/ml) under serum-free conditions for 15 minutes. The T cells were collected, placed in a microcentrifuge tube and washed once with 10 mM Tris buffered saline (TBS) and lysed for 30 minutes in 100 μl of ice cold lysate buffer (10 mM TBS, 1% NP-40, 0.5% sodium deoxycholate, 0.1% SDS, 100 μg/ml phenylmethylsulfonyl fluoride (PMSF), 60 μg/ml Aprotinin, and 1 mM sodium orthovanadate). The cells were passed through a 21 gauge needles three times, and an additional 2 μl of 10 mg/ml PMSF was added. The tubes were incubated for an additional 30 minutes on ice and were centrifuged for 20 minutes, 4° C., 13,000×g. The supernatant was collected and used as total cellular lysate. The protein concentration was measured, and added to equal amounts of protein lysate were 20 μg/ml anti-CD3ζ antibody, or anti-CD3ε antibody plus rabbit anti-hamster IgG antibody and incubated overnight at 4° C. The rabbit anti-hamster IgG was needed for the CD3ε immunoprecipitation, since much of the CD3ε was bound by 2C11 a hamster anti-mouse […] and hamster antibody weakly binds protein-G. Protein-G sepharose beads (Pharmacia, Piscataway, N.J.) were added to the antibody containing lysates and incubated for 1 hour at room temperature with end over end agitation. The beads were centrifuged and washed 4 times with 10 mM TBS containing 0.5% sodium deoxycholate. After the final wash the beads were resuspended in 20 μl of distilled water and 20 μl non-reducing SDS Tris-glycine sample buffer (Novex, San Diego, Calif.), boiled for 5 minutes and applied into two wells (20 μl) of a 8-16% Tris-glycine polyacrylamide gel (Novex).\nFollowing electrophoresis in a Novex Xcell II minicell and blot module, the proteins were transferred from the gel onto a nitrocellulose membrane (Novex) by electroblotting. The membrane was blocked with 1% BSA in 0.01 M TBS for 1 hour room temperature. […] Membranes were digitally photographed and analyzed using NIH Image software to integrate the band intensities relative to band area minus background. […]\nThe enriched primed T cells (2×10^6 cells) were incubated with anti-CD3 in the presence of α-MSH (30 pg/ml) for 15 minutes. […] The immunoprecipitates were analyzed by non-reducing SDS-PAGE (on a 8-16% gradient gel), followed by transfer to a nitrocellulose filter and immunoblotting with anti-phosphotyrosine antibody: (1) Unstimulated primed T cells treated with α-MSH; (2) Unstimulated primed T cells incubated in media alone; (3) Enriched primed T cells TCR-stimulated in the absence of α-MSH; (4) Enriched primed T cells TCR-stimulated in the presence of α-MSH. […]"}, "EAU": {"test_system": "EAU", "settings": "direct injections into eyes of mice; cited from earlier work"}},
  "note": "No end group written: not given here.",
  "data": [
    {"substance": "α-melanocyte stimulating hormone (SYSMEHFRWGKPV; not fully specified; ends and bridges not checked; UniProt P01189 138-150, looked up) [α-MSH, synthetic α-MSH (Peninsula Laboratories); thirteen-amino acid neuropeptide derived from POMC]", "values": [
      {"measurement": "frequency of IFN-γ positive cells, intracellular IFN-γ staining in CD4+ T cells", "setting": "CD4+ T cells", "result": "substantially shifted toward lower levels"},
      {"measurement": "intracellular IL-4 staining in CD4+ T cells", "setting": "CD4+ T cells", "result": "shift to higher levels"},
      {"measurement": "level of tyrosine phosphorylation of CD3ε chains", "setting": "CD3ε; TCR-stimulated and unstimulated primed T cells, Example I (FIG. 7B)", "result": "no effect"},
      {"measurement": "relative intensity of phosphotyrosine band, CD3ε", "setting": "CD3ε; TCR-stimulated primed T cells, α-MSH 30 pg/ml, 15 minutes (lane 4; without α-MSH 10)", "result": 10},
      {"measurement": "overall level of tyrosine phosphorylation of CD3ε", "setting": "CD3ε; TCR-stimulated primed T cells, α-MSH 30 pg/ml, 15 minutes, Example III (FIG. 18A)", "result": "no significant change"},
      {"measurement": "relative intensity of phosphotyrosine band, CD3ε", "setting": "CD3ε; unstimulated primed T cells, α-MSH 30 pg/ml, 15 minutes (lane 1; media alone 1)", "result": 1},
      {"measurement": "severity of inflammation and recovery in EAU", "setting": "EAU", "result": "suppress the severity of the inflammation and accelerate recovery"}
    ]}
  ]
}
